Values joined by “and” are separate entries in the source; they are usually repeats but may differ in a detail not shown here. Equal entries are not always repeated.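 All cell lines were grown in 96-well plates and treated with compound for 48 hours. Abbreviation: GI50, concentration required for 50% inhibition of growth. TGI: concentration producing complete growth inhibition.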
Columns and labels:
Assay in all cases: inhibition of tumour cell growth, NCI panel, 48 h
[1] = test system: MDA-MB-468 breast
[2] = test system: 786-0 renal
[3] = test system: A498 renal
[4] = test system: A549 NSCLC
[5] = test system: ACHN renal
[6] = test system: BT-549 breast
[7] = test system: CAKI-1 renal
[8] = test system: COLO 205 colon
[9] = test system: EKVX NSCLC
[10] = test system: HCC-2998 colon
[11] = test system: HCT-15 colon
[12] = test system: HL-60(TB) leukemia
[13] = test system: HOP-62 NSCLC
[14] = test system: HS 578T breast
[15] = test system: HT29 colon
[16] = test system: IGROV1 ovarian
[17] = test system: K-562 leukemia
[18] = test system: KM12 colon
[19] = test system: LOX IMVI melanoma
[20] = test system: M14 melanoma
[21] = test system: MALME-3M melanoma
[22] = test system: MCF7 breast
[23] = test system: MDA-MB-231 breast
[24] = test system: MDA-MB-435
[25] = test system: MOLT-4 leukemia
[26] = test system: NCI-H226 lung
[27] = test system: NCI-H23 lung
[28] = test system: NCI-H460 lung
[29] = test system: OVCAR-3 ovarian
[30] = test system: OVCAR-5 ovarian
[31] = test system: PC-3 prostate
[32] = test system: RPMI-8226 leukemia
[33] = test system: RXF 393 renal
[34] = test system: SF-268 CNS
[35] = test system: SF-295 CNS
[36] = test system: SF-539 CNS
[37] = test system: SK-MEL-2 melanoma
[38] = test system: SK-MEL-28 melanoma
[39] = test system: SK-MEL-5 melanoma
[40] = test system: SK-OV-3 ovarian
[41] = test system: SN12C renal
[42] = test system: SNB-19 CNS
[43] = test system: SNB-75 CNS
[44] = test system: SR leukemia
[45] = test system: TK-10 renal
[46] = test system: U251 CNS
[47] = test system: UACC-257 melanoma
[48] = test system: UACC-62 melanoma
[49] = test system: UO-31 renal

Compound: COc1cc(-c2cc(/C=C3\C(=O)Nc4cc(Cl)ccc43)[nH]n2)cc(OC)c1OC
- GI50 [1]: 3.17 µM
- TGI [1]: 18.2 µM

Compound: COc1cc(C2CC(c3cccc(Nc4ccnc5cc(Cl)ccc45)c3)=NN2C=O)cc(OC)c1OC (centres undefined)
- GI50 [1]: 0.293 µM
- TGI [1]: 1.07 µM

Compound: C#C[C@]1(O)CC[C@H]2[C@@H]3CC=C4c5sc(Nc6ccc(OC)nc6)nc5CC[C@]4(C)[C@H]3CC[C@@]21C
- GI50 [1]: 1.46 µM
- TGI [1]: 3.53 µM

Compound: CCN1C(C)(C)CC(Oc2ccc(C(=O)Nc3ccc(NC(=O)Nc4cc(C(C)(C)C)on4)cc3)nc2)CC1(C)C
- GI50 [1]: 3.21 µM
- TGI [1]: 8.95 µM

Compound: N#C/C(=C/NC(=S)NCc1ccccc1)C(N)=O
- GI50 [1]: > 100 µM
- TGI [1]: > 100 µM

Compound: Oc1c(I)cc(I)cc1CNCCN(Cc1ccccn1)Cc1ccccn1
- GI50 [1]: 1.67 µM
- TGI [1]: 4.85 µM

Compound: CSc1nc(N)cc(Oc2ccc(-c3nc(Nc4cccc(C(F)(F)F)c4)n[nH]3)cc2)n1
- GI50 [1]: 0.36 µM
- TGI [1]: 2.66 µM

Compound: C/C(=C1\SC(=NCc2cccs2)NC1=O)c1ccc2ncccc2c1
- GI50 [1]: 7.13 µM
- TGI [1]: > 25 µM

Compound: O=C1C=CC=C[C@@H]2C(C3OCCO3)CC[C@H]12.[C-]#[O+].[C-]#[O+].[C-]#[O+].[Fe] (some centres undefined)
- GI50 [1]: 35.2 µM
- TGI [1]: > 100 µM

Compound: O=c1[nH]cnc2c1ccn2C1OC(CO)C(O)C1O (centres undefined)
- GI50 [1]: 0.762 µM
- TGI [1]: 3.73 µM

Compound: Cc1ccccc1N1CCN(C2=C(Cl)C(=O)c3ncccc3C2=O)CC1
- GI50 [1]: 1.6 µM
- TGI [1]: 3.18 µM

Compound: Cn1cc(-c2nonc2-c2cn(C)c3ccc(F)cc23)c2ccccc21
- GI50 [1]: 0.515 µM
- TGI [1]: > 84 µM

Compound: CN1N=C(N)c2cn(C3OC(COP(=O)(O)O)C(O)C3O)c3ncnc1c23 (centres undefined)
- GI50 [1]: 0.205 µM
- TGI [1]: 3.05 µM

Compound: CCN(CC)c1ccc(/C=N/NC(=O)c2ccc(S(C)(=O)=O)cc2)c(O)c1
- GI50 [1]: 0.25 µM
- TGI [1]: 1.27 µM

Compound: Clc1ccc(CNc2ccc3nc(CCC4CCCCC4)[nH]c3c2)cc1
- GI50 [1]: 1.57 µM
- TGI [1]: 3.47 µM

Compound: Cc1ncc(C(=O)Nc2ccc(CN3CCN(C)CC3)c(C(F)(F)F)c2)cc1C#Cc1c(N)ncc2ccc(F)cc12
- GI50 [1]: 2.82 µM
- TGI [1]: 12 µM

Compound: O=C1C(Br)=CC2C1C1C3CCC3C2(Br)C12OCCO2 (centres undefined)
- GI50 [1]: 1.37 µM
- TGI [1]: 4.21 µM

Compound: CS(=O)(=O)CCN(CC#N)Cc1ccc(-c2ccc3ncnc(Nc4ccc(OCc5cccc(F)c5)c(Cl)c4)c3c2)o1
- GI50 [1]: 0.0767 µM
- TGI [1]: 1.09 µM

Compound: Cn1cc(C2=C(Oc3ccccc3)C(=O)NC2=O)c2ccccc21
- GI50 [1]: > 25 µM
- TGI [1]: > 25 µM

Compound: Clc1ccc(Nc2nnc(CNc3ccccc3)c3ccccc23)cc1
- GI50 [1]: 1.9 µM
- TGI [1]: 11.5 µM

Compound: CCCN1CCN(c2ccc3nc(-c4ccc5nc(-c6ccc(C(F)(F)F)cc6)[nH]c5c4)[nH]c3c2)CC1
- GI50 [1]: 1.78 µM
- TGI [1]: 3.39 µM

Compound: C=CCNCCN1C(=O)c2ccc3c4c(ccc(c24)C1=O)C(=O)N(CCNCC=C)C3=O
- GI50 [1]: 0.466 µM
- TGI [1]: 1.16 µM

Compound: O=C1Nc2ccccc2/C1=C\c1c[nH]c2ccc(Br)cc12
- GI50 [1]: 1.62 µM
- TGI [1]: 3.76 µM

Compound: O=C(OCc1nc2nc(Cl)nc(N3CCOCC3)c2[nH]1)n1ccnc1
- GI50 [1]: 1.85 µM
- TGI [1]: 3.54 µM

Compound: O=C(NCCCN1CCC(N2CCCCC2)CC1)C1=Cc2cc(Br)ccc2OC1
- GI50 [1]: 3.15 µM
- TGI [1]: 12.6 µM

Compound: CSc1ccc(NC(=O)c2ccc3nn(/C(C#N)=C/c4ccccn4)nc3c2)cc1
- GI50 [2]: 1.7 µM
- TGI [2]: 3.13 µM
- GI50 [3]: 1.9 µM
- TGI [3]: 3.71 µM
- GI50 [4]: 2.34 µM
- TGI [4]: 5.99 µM
- GI50 [5]: 1.55 µM
- TGI [5]: 2.88 µM
- GI50 [6]: 1.67 µM
- TGI [6]: 3.11 µM
- GI50 [7]: 1.07 µM
- TGI [7]: 2.35 µM
- GI50 [8]: 1.72 µM
- TGI [8]: 3.3 µM
- GI50 [9]: 1.54 µM
- TGI [9]: 3.01 µM
- GI50 [10]: 1.65 µM
- TGI [10]: 3.01 µM
- GI50 [11]: 1.15 µM
- TGI [11]: 2.51 µM
- GI50 [12]: 0.626 µM
- TGI [12]: 3.75 µM
- GI50 [13]: 1.95 µM
- TGI [13]: 3.87 µM
- GI50 [14]: 2.2 µM
- TGI [14]: 7.68 µM
- GI50 [15]: 1.87 µM
- TGI [15]: 4.51 µM
- GI50 [16]: 1.74 µM
- TGI [16]: 3.36 µM
- GI50 [17]: 0.681 µM
- TGI [17]: 5.05 µM
- GI50 [18]: 2.07 µM
- TGI [18]: 4.44 µM
- GI50 [19]: 1.23 µM
- TGI [19]: 2.52 µM
- GI50 [20]: 1.78 µM
- TGI [20]: 3.3 µM
- GI50 [21]: 1.45 µM
- TGI [21]: 2.83 µM
- GI50 [22]: 0.971 µM
- TGI [22]: 2.47 µM
- GI50 [23]: 1.52 µM
- TGI [23]: 2.97 µM
- GI50 [24]: 1.54 µM
- TGI [24]: 3.19 µM
- GI50 [1]: 1.08 µM
- TGI [1]: 2.59 µM
- GI50 [25]: 0.796 µM
- TGI [25]: 4.63 µM
- GI50 [26]: 1.98 µM
- TGI [26]: 4.73 µM
- GI50 [27]: 1.57 µM
- TGI [27]: 2.99 µM
- GI50 [28]: 1.88 µM
- TGI [28]: 3.95 µM
- GI50 [29]: 0.991 µM
- TGI [29]: 2.64 µM
- GI50 [30]: 1.59 µM
- TGI [30]: 3.07 µM
- GI50 [31]: 1.88 µM
- TGI [31]: 3.97 µM
- GI50 [32]: 1.77 µM
- TGI [32]: 5.71 µM
- GI50 [33]: 1.24 µM
- TGI [33]: 2.51 µM
- GI50 [34]: 2.36 µM
- TGI [34]: 6.21 µM
- GI50 [35]: 1.73 µM
- TGI [35]: 3.29 µM
- GI50 [36]: 1.67 µM
- TGI [36]: 3.04 µM
- GI50 [37]: 1.88 µM
- TGI [37]: 3.53 µM
- GI50 [38]: 1.67 µM
- TGI [38]: 3.05 µM
- GI50 [39]: 1.68 µM
- TGI [39]: 3.11 µM
- GI50 [40]: 2.72 µM
- TGI [40]: 6.96 µM
- GI50 [41]: 1.87 µM
- TGI [41]: 3.97 µM
- GI50 [42]: 1.85 µM
- TGI [42]: 4.26 µM
- GI50 [43]: 1.42 µM
- TGI [43]: 4.26 µM
- GI50 [44]: 1.15 µM
- TGI [44]: 7.6 µM
- GI50 [45]: 1.75 µM
- TGI [45]: 3.21 µM
- GI50 [46]: 1.59 µM
- TGI [46]: 3.17 µM
- GI50 [47]: 1.64 µM
- TGI [47]: 3.17 µM
- GI50 [48]: 1.62 µM
- TGI [48]: 3.06 µM
- GI50 [49]: 1.2 µM
- TGI [49]: 2.43 µM

Compound: CCn1c(-c2nonc2N)nc2c(C#CC(C)(C)O)nc(CN3CCCC3)cc21
- GI50 [1]: 4.15 µM
- TGI [1]: > 25 µM

Compound: O=C1NC(=NCc2ccccc2Br)S/C1=C\c1ccc2ncccc2c1
- GI50 [1]: 4.22 µM
- TGI [1]: > 25 µM

Compound: COc1ccc(C2C(C#N)=C(N)Oc3c2sc2c(F)cccc32)cc1 (centres undefined)
- GI50 [1]: 1.34 µM
- TGI [1]: 10.6 µM

Compound: C[C@H](NC(=O)c1c(N)nn2cccnc12)c1cc2cccc(C#Cc3cnn(C)c3)c2c(=O)n1-c1ccccc1
- GI50 [1]: 0.843 µM and 1.46 µM
- TGI [1]: 4.55 µM and 9.08 µM

Compound: COc1cccc2c1C(=O)c1c(O)c3c(c(O)c1C2=O)C[C@@](O)(C(C)=O)C[C@@H]3O[C@H]1C[C@H](N)[C@H](O)[C@H](C)O1
- GI50 [1]: 0.0716 µM
- TGI [1]: 0.221 µM

Compound: COc1ccc(NC(=O)Nc2ccccc2CNc2nc(Nc3ccc(OCCN4CCCC4)cc3)ncc2Cl)cc1
- GI50 [1]: 0.894 µM
- TGI [1]: 1.72 µM

Compound: Cc1cc(Nc2nc(-c3ccc(F)cc3)nc3ccccc23)n[nH]1
- GI50 [1]: 2.01 µM
- TGI [1]: 11.3 µM

Compound: O=c1oc2ccc(Br)cc2c(=O)n1-c1ccc(Br)cc1F
- GI50 [1]: 0.819 µM
- TGI [1]: 4.32 µM
